In test [1] the test system is Vaccinia virus. As to the kind of experiment: Antiviral activity against Vaccinia virus LIVP harboring GFP infected in African green monkey CV1 cells assessed as GFP expression at 10 uM preincubated for 4 hrs with cells followed by viral infection measured after 24 hrs by flow cytometric analysis relative to control. It counts as functional, Orthopoxvirus vaccinia. In general terms: Flow cytometry measures light scatter and fluorescence of single cells or particles in a stream.

In test [2] the test system is Vaccinia virus. As to the kind of experiment: Antiviral activity against Vaccinia virus LIVP harboring GFP infected in African green monkey CV1 cells assessed as virus titer at 1 uM preincubated with cells for 4 hrs followed by viral infection measured after 48 hrs by gentian violet staining-based microscopic analysis (reference value: 3.3 +/- 0.1 log10PFU/ml). It counts as functional, Orthopoxvirus vaccinia.

Test [3] relates to Vaccinia virus. As to the kind of experiment: Antiviral activity against Vaccinia virus LIVP harboring GFP infected in African green monkey CV1 cells assessed as virus titer at 10 uM preincubated with cells for 4 hrs followed by viral infection measured after 48 hrs by gentian violet staining-based microscopic analysis (reference value: 3.3 +/- 0.1 log10PFU/ml). It counts as functional, Orthopoxvirus vaccinia.

For test [4], the system named is Vaccinia virus. As to the kind of experiment: Antiviral activity against Vaccinia virus LIVP harboring GFP infected in African green monkey CV1 cells assessed as virus titer at 50 uM preincubated with cells for 4 hrs followed by viral infection measured after 48 hrs by gentian violet staining-based microscopic analysis (reference value: 3.3 +/- 0.1 log10PFU/ml). It counts as functional, Orthopoxvirus vaccinia.

The subject of test [5] is Vaccinia virus. Kind of test: Antiviral activity against Vaccinia virus LIVP harboring GFP infected in African green monkey CV1 cells assessed as virus titer preincubated with cells for 4 hrs followed by viral infection measured after 48 hrs by gentian violet staining-based microscopic analysis. It counts as functional. As to conditions: Orthopoxvirus vaccinia, CV-1.
The subject of test [6] is Vaccinia virus. Kind of test: Antiviral activity against Vaccinia virus LIVP harboring GFP infected in African green monkey CV1 cells assessed as inhibition of GFP expression at 30 to 50 uM preincubated for 4 hrs with cells followed by viral infection measured after 24 hrs by flow cytometric analysis relative to control. It counts as functional, Orthopoxvirus vaccinia.

Test [7] concerns Vaccinia virus. As to the kind of experiment: Antiviral activity against Vaccinia virus LIVP harboring GFP infected in African green monkey CV1 cells assessed as virus titer at 30 uM preincubated with cells for 4 hrs followed by viral infection measured after 48 hrs by gentian violet staining-based microscopic analysis (reference value: 3.3 +/- 0.1 log10PFU/ml). It counts as functional, Orthopoxvirus vaccinia.

The test system of test [8] is Vaccinia virus. Kind of test: Antiviral activity against Vaccinia virus LIVP harboring GFP infected in African green monkey CV1 cells assessed as virus titer at 5 uM preincubated with cells for 4 hrs followed by viral infection measured after 48 hrs by gentian violet staining-based microscopic analysis (reference value: 3.3 +/- 0.1 log10PFU/ml). It counts as functional, Orthopoxvirus vaccinia.

Each structure is given as a SMILES string.

On to `O=C(CCCn1c2ccccc2c2nc3ccccc3nc21)NCCN1CCOCC1`, for which, in test [1], the Activity worked out at 111%.
For the compound `CCN(CC)CCn1c2ccc(OC)cc2c2nc3ccccc3nc21`, the Activity in test [1] turned out to be 91%.
Same read-out and setting: next, `CN1CCN(CC(=O)NN2C(=O)c3cccc4cccc(c34)C2=O)CC1`: 48%.
Regarding `O=C(Cn1c2ccccc2c2nc3ccccc3nc21)NCCN1CCOCC1`, the Activity in test [1] was 125%.
On the same count and under the same terms, then `CCN(CC)CCNC(=O)Cn1c2ccccc2c2nc3ccccc3nc21`, with 67%.
By IC50 is commonly meant the concentration at which inhibition is half-maximal. With `COc1ccc2c(c1)c1nc3ccccc3nc1n2CCN1CCCCC1`, the Activity in test [1] turned out to be 23%; in test [2], 3.1 log10PFU; in test [3] it was 2.8 log10PFU; in test [4] it was 2.4 log10PFU. Also, the IC50 in test [5] was 5 µM. Further, in test [6], the “fold change (FC)” value was 8 - 10.
Take `CN1CCN(CCN2C(=O)c3cccc4cccc(c34)C2=O)CC1`: the Activity in test [1] is 77%.
As to `O=C(Cn1c2ccccc2c2nc3ccccc3nc21)OCCN1CCCCC1`, the Activity in test [1] turned out to be 71%.
Still for that read-out and setting: next, `CCCCN(CCO)CCN1C(=O)c2cccc3cccc(c23)C1=O`: 83%; `CCCCN(C)CCn1c2ccccc2c2nc3ccccc3nc21`: 77%; `O=C(CN1CCCC1)NN1C(=O)c2cccc3cccc(c23)C1=O`: 111%.
As to `CN(C)CCn1c2ccccc2c2nc3ccccc3nc21`, the Activity in test [1] amounted to 67%.
Still for that read-out and setting: next, `Cc1ccc2c(c1)c1nc3ccccc3nc1n2CCN1CCN(C)CC1`: 111%; `COC(=O)CN1CCN(CCN2C(=O)c3cccc4cccc(c34)C2=O)CC1`: 77%.
As for `CN1CCN(CCn2c3ccccc3c3nc4ccccc4nc32)CC1`, the Activity in test [1] is reported as 91%.
Still for that read-out and setting: next, `COC(=O)CN(C)CCCN1C(=O)c2cccc3cccc(c23)C1=O`: 83%.
Turning to `c1ccc2nc3c(nc2c1)c1ccccc1n3CCNCCCN1CCOCC1`, the Activity in test [1] was 48%; in test [2], 3.6 log10PFU; in test [3], 3.3 log10PFU; in test [7], 2.6 log10PFU. The IC50 in test [5] was found to be 19 µM. For the same compound, in test [6], the “fold change (FC)” value is listed as 8 - 10.
As to `O=C(CN1CCCCCC1)NN1C(=O)c2cccc3cccc(c23)C1=O`, the Activity in test [1] is reported as 111%.
The same measure, in the same setting: next, `CCN(CCO)CCN1C(=O)c2cccc3cccc(c23)C1=O`: 71%; `CN(C)CCNC(=O)CCCn1c2ccccc2c2nc3ccccc3nc21`: 100%; `CN(C)CCCOC(=O)Cn1c2ccccc2c2nc3ccccc3nc21`: 83%.
Regarding `CC1CCN(CC(=O)NN2C(=O)c3cccc4cccc(c34)C2=O)CC1`, the Activity in test [1] was found to be 125%.
On the same count and under the same terms, then `CN(C)CCNCCn1c2ccccc2c2nc3ccccc3nc21`, with 77%; and `CCN(CC)CCNC(=O)CCCn1c2ccccc2c2nc3ccccc3nc21`, with 91%.
On to `CN(C)CCCNC(=O)Cn1c2ccccc2c2nc3ccccc3nc21`, for which the Activity is 42% in test [1], 3.4 log10PFU in test [2], 2.8 log10PFU in test [3] and 2.5 log10PFU in test [4]. Besides, the IC50 in test [5] is 10 µM. Further, the “fold change (FC)” value in test [6] is reported as 8 - 10.
In the case of `CN(C)CCNC(=O)Cn1c2ccccc2c2nc3ccccc3nc21`, the Activity in test [1] came to 59%.
Still for that read-out and setting: next, `O=C(CCCn1c2ccccc2c2nc3ccccc3nc21)OCCN1CCOCC1`: 111%.
For the compound `CCN(CC)CCCNCCn1c2ccccc2c2nc3ccccc3nc21`, the Activity was 28% in test [1], 2.8 log10PFU in test [2], 2.6 log10PFU in test [3] and 2.8 log10PFU in test [8]. Also, in test [5], the concentration for half-maximal inhibition (IC50) is below 1 µM.
With `CN(C)CCOC(=O)CCCn1c2ccccc2c2nc3ccccc3nc21`, in test [1], the Activity came out at 125%.
For `CCN(CC)CCCC(C)N1C(=O)c2cccc3cccc(c23)C1=O` (centres undefined), in test [1], the Activity is 111%.
Still for that read-out and setting: then `O=C(Cn1c2ccccc2c2nc3ccccc3nc21)NCCCN1CCOCC1`, with 83%.
Same read-out and setting: next, `CCN(CC)CCNCCn1c2ccccc2c2nc3ccccc3nc21`: 91%.
As to `CN(C)CCCNCCn1c2ccccc2c2nc3ccccc3nc21`, the Activity in test [1] was found to be 45%; in test [2] it was 3.5 log10PFU; in test [3], 3.3 log10PFU; in test [7] it was 2.7 log10PFU. The IC50 in test [5] turned out to be 22 µM. Moreover, the “fold change (FC)” value in test [6] is reported as 8 - 10.
On to `O=C(CCCn1c2ccccc2c2nc3ccccc3nc21)NCCN1CCCCC1`, for which, in test [1], the Activity is given as 100%.
Still for that read-out and setting: next, `O=C(CCCn1c2ccccc2c2nc3ccccc3nc21)NCCCN1CCOCC1`: 111%; `CC(O)N(C)CCn1c2ccccc2c2nc3ccccc3nc21` (centres undefined): 91%.
On the same count and under the same terms, then `c1ccc2nc3c(nc2c1)c1ccccc1n3CCNCCN1CCCCC1`, with 71%.
On the same count and under the same terms, next, `CN(C)CCCNC(=O)CCCn1c2ccccc2c2nc3ccccc3nc21`: 111%.
With `CCN(CC)CCCNC(=O)Cn1c2ccccc2c2nc3ccccc3nc21`, the Activity in test [1] is 83%.
Same read-out and setting: then `CN(CCO)CCN1C(=O)c2cccc3cccc(c23)C1=O`, with 83%.

(Values after ChEMBL document CHEMBL4052722, “Virtual screening, synthesis and biological evaluation of DNA intercalating antiviral agents” (Bioorg Med Chem Lett, 2017).)
